Article PMC9426601 (mBio, 2022)
Where “and” joins values, the source holds several entries; their conditions need not be identical. Equal values may be shown once. Read-outs that look alike come from different tables or passages of the source.

Key:
[1] = target: NA activity of A(H3N2)-WT (Influenza A virus, UniProt P06818); format: biochemical
[2] = target: NA activity of A(H1N1pdm09)-WT (Influenza A virus, UniProt C7FH46); format: biochemical; conditions: read-out: IC50 (nM), neuraminidase inhibitor
A(H3N2)-WT [3] = assay: yield reduction assay (YRA) in MDCK-SIAT cells; format: cell-based, influenza A(H3N2) virus; conditions: A(H3N2) 100% WT, mean ± SD
Protocol: (§1) To perform the yield reduction assay, MDCK-SIAT cells were seeded into a 96-well plate as described above. Cell monolayers were washed with PBS and infected with 100 virus particles (calculated based on virus titer determined by TCID50) for 90 min. […] The plates were incubated for 24 h at 35°C, and the supernatant was collected and quantified to determine the infectious viral titer by using a TCID50 assay.

A(H1N1pdm09)-WT [4] = assay: yield reduction assay (YRA) in MDCK-SIAT cells; format: cell-based, influenza A(H1N1pdm09) virus; conditions: A(H1N1pdm09) 100% WT, mean ± SD
Protocol: as §1

A(H3N2) 100% WT = tested on: A(H3N2) 100% WT; set-up: species or system ferrets (Mustela putorius furo); conditions: in vivo
A(H1N1pdm09) 100% WT = tested on: A(H1N1pdm09) 100% WT; set-up: species or system ferrets (Mustela putorius furo); AUC (area under the curve of nasal wash viral titer): unit not given beside the values; conditions: in vivo
A(H3N2)-WT [5] = assay: microbe, parasite or virus in culture; format: cell-based; conditions: Influenza A virus, H3N2, read-out: Baloxavir EC50 (nM) FRA
A(H1N1pdm09)-WT [6] = assay: microbe, parasite or virus in culture; format: cell-based, influenza A(H1N1pdm09) virus; conditions: Influenza A virus, read-out: Baloxavir EC50 (nM) FRA
[7] = read-out: Oseltamivir IC50 (nM) YRA
[8] = Influenza A virus, read-out: Baloxavir EC50 (nM) YRA

| SMILES | IC50 ([1]; read-out: IC50 (nM), neuraminidase inhibitor) [nM] | IC50 [2] [nM] | IC50 (A(H3N2)-WT [3]; [7]) [nM] | IC50 (A(H1N1pdm09)-WT [4]; [7]) [nM] | IC50 ([1]; read-out: Oseltamivir IC50 (nM) NIA) [nM] | Duration of viral shedding (A(H3N2) 100% WT) | AUC (area under the curve of nasal wash viral titer) (A(H1N1pdm09) 100% WT) | Duration of viral shedding (A(H1N1pdm09) 100% WT) [days] | reduction in mean viral titer 1 day following antiviral treatment (A(H1N1pdm09) 100% WT) | EC50 (A(H3N2)-WT [5]) [nM] | EC50 (A(H1N1pdm09)-WT [6]) [nM] | EC50 (A(H3N2)-WT [3]; [8]) [nM] | EC50 (A(H1N1pdm09)-WT [4]; [8]) [nM] | duration of viral shedding shorter than placebo (A(H3N2) 100% WT) [days] | reduction in AUC relative to placebo (A(H3N2) 100% WT) [%] | reduction in AUC relative to placebo (A(H1N1pdm09) 100% WT) [%] | reduction of duration of viral shedding vs placebo (A(H1N1pdm09) 100% WT) [days] |
| --- | --- | --- | --- | --- | --- | --- | --- | --- | --- | --- | --- | --- | --- | --- | --- | --- | --- |
| CCC(CC)[C@H](NC(C)=O)[C@@H]1[C@H](O)[C@@H](C(=O)O)C[C@H]1N=C(N)N [Peramivir] | 0.19 ± 0.01 | 0.15 ± 0.03 |  |  |  |  |  |  |  |  |  |  |  |  |  |  |  |
| CCOC(=O)C1=C[C@@H](OC(CC)CC)[C@H](NC(C)=O)[C@@H](N)C1 [Oseltamivir, oseltamivir] |  |  | […] | […] | […] | […] | […] | […] | no reduction |  |  |  |  |  |  |  |  |
| O=C1c2c(O)c(=O)ccn2N([C@@H]2c3ccccc3SCc3c2ccc(F)c3F)[C@@H]2COCCN12 [Baloxavir, baloxavir acid] |  |  |  |  |  | 4.3 days and 4.3 ± 0.9 days |  | 4 ± 0.8 | 1,000 fold | 0.6 ± 0.2 | 1.2 ± 0.2 | 0.4 ± 0.1 | 0.3 ± 0.02 | 1.7 | 28 | 29 | 2.3 |
